Data on 1 compound can be found in BindingDB's records for doi:10.1016/j.bmcl.2007.12.050 (Neurogen, 2008).

This experiment in a line: Antagonist activity at CRF1 receptor expressed in mouse AtT20 cells assessed as inhibition of sauvagine-stimulated cAMP accumulation.

On to `CCCN(CCC)c1c(C)nc(-c2c(C)cc(C)cc2OC)c2ccccc12` [1-(2-methoxy-4,6-dimethylphenyl)-3-methyl-N,N-dipropylisoquinolin-4-amine], for which the Ki was 12 nM.
